Laboratory results taken from patent US20110065714A1, “SUBSTITUTED QUINAZOLINES” (Shire LLC, priority 2008, published 2011).

Tests used:
[1] = tested on: human phosphodiesterase III (PDE III); test: PDE III inhibition; type: biochemical; settings: more potent than anagrelide
[2] = pharmacokinetics of anagrelide and its metabolite in patients; type: in vivo, human; settings: typical exposures, greater than anagrelide
[3] = tested on: human megakaryocytopoiesis; settings: cited from earlier work
[4] = human, in vivo; cited from earlier work
[5] = target: human phosphodiesterase III (PDE III); settings: cited from earlier work
[6] = tested on: erythroid or myelomonocytic differentiation; settings: stimulated by erythropoietin or granulocyte-macrophage colony-stimulating factor; cited from earlier work

Row | potency as PDE III inhibitor relative to anagrelide [1] | exposure in vivo relative to parent drug [2] | Structure (SMILES) | potency in inhibition of megakaryocytopoiesis relative to parent drug ([3]; compared with anagrelide) | typical half-life [4] | IC50 ([3]; in vitro, TPO-induced, read-out: estimated IC50 for inhibition of TPO-induced megakaryocytopoiesis) | IC50 [5] | effect on erythroid or myelomonocytic differentiation [6] | first pass effect [4]
1 | over 40 fold | 2-3 fold | O=C1NC2=Nc3ccc(Cl)c(Cl)c3CN2C1O (stereo not shown) [3-hydroxyanagrelide] | no more potent than the parent drug | 2.5 h |  |  |  | 
2 |  |  | O=C1CN2Cc3c(ccc(Cl)c3Cl)N=C2N1 [Anagrelide, 6,7-dichloro-1,5-dihydroimidazo[2,1-b]-quinazolin-2(3H)-one] |  | 1.5 h | ~26 nM | ~29 nM | does not affect | > 50%
3 |  |  | Cc1[nH]c(=O)c(C#N)cc1-c1ccncc1 [milrinone] |  |  |  | 170 to 350 nM |  | 
